In patent US20050180935A1, “Deodorant cosmetic composition comprising a combination of zinc gluconate and an antiperspirant aluminum salt” (priority 2003, published 2005):

Test: deodorant efficacy test: odor intensity of incubated sweat rated by expert panel
Set-up: species or system human
Conditions: 24 h at 37° C, vs control sweat sample
Experimental: Collections of underarm sweat were taken in a sauna from 6 volunteers; the samples of individual sweat were stored in ice for a few hours and were initially almost odorless. They were mixed together and divided into 1 ml aliquots. The active agents were added to the aliquots, which were then incubated in an oven at 37° C. After incubation for 24 hours, a panel of experts evaluated the intensity of the odor in comparison with a control sample: 1 ml of sweat incubated without an active agent. The intensity was evaluated on a scale ranging from 0 (no odor) to 4 (very strong odor).
The results below are expressed as a percentage of variation of the intensity of the odor in comparison with the control sweat sample (mean of the percentages of variation at T24h).

Compound: aluminum chlorohydrate [ACH]
- % of reduction in the intensity of the odor (0.1 mg AM/ml of sweat): −37%

Compound: Oc1cc(Cl)ccc1Oc1ccc(Cl)cc1Cl [(B), 2,4,4′-trichloro-2′-hydroxydiphenyl ether]
- % of reduction in the intensity of the odor (0.4 mg AM/ml of sweat): −49%

Compound: zinc gluconate [(A)]
- % of reduction in the intensity of the odor (0.5 mg AM/ml of sweat): −19%

Compound: zinc ricinoleate [(C)]
- % of reduction in the intensity of the odor (0.3 mg AM/ml of sweat): −4%
